Source: PMC4169579, “Proteolytic Activity of Prostate-Specific Antigen (PSA) towards Protein Substrates and Effect of Peptides Stimulating PSA Activity” (PLoS ONE, 2014)
Like-named read-outs stand apart in the source and are kept apart here.

Key:
[1] = biological target: T1, PSA (Homo sapiens, UniProt P07288); assay: Enzyme kinetics of PSA with chromogenic peptide substrate S-2586; type: biochemical; conditions: S-2586 0.125–5 mM, 175 nM PSA, 0.1% BSA-TBS, room temperature, mean ± SD of two experiments
T1 construct: from tissue; host or cells: pooled human seminal fluid
T1 sequence (P07288 25-261): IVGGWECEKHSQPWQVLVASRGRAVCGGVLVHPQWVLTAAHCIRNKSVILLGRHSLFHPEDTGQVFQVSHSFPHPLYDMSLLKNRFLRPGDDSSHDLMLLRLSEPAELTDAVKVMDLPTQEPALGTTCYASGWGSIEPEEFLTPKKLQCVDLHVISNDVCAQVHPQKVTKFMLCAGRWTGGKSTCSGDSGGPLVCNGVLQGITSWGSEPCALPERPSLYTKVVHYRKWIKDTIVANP
Method: (§1) The major form of active PSA (isoform PSA-B) was purified from pooled human seminal fluid by immunoaffinity chromatography followed by anion exchange chromatography. Semenogelins I and II were isolated from human seminal fluid as previously described, but instead of alkylating the proteins, the reducing agent 30 mM dithiothreitol (Sigma-Aldrich, St. Louis, MO) was included in all buffers during purification. Semenogelins were stored in the purification buffer containing 2 M urea and 5 mM EDTA at −70°C. Prior to cleavage by PSA, the buffer was exchanged to 50 mM Tris, pH 7.7, containing 0.15 M NaCl (TBS), with Amicon Ultra centrifugal filter units (MW cut-off 30 kDa) (Millipore, Cork, Ireland) at 4°C, and protein concentration was determined by measuring absorbance at 280 nm.
The proteolytic activity of PSA towards small peptide substrates was compared with two different substrates. […] The absorbance was measured at 405 nm immediately and at 5 min intervals for 30 min and fluorescence at 355/460 nm (excitation/emission) after 10 min, 20 min, 40 min, 1 h, 2 h and 4 h incubation at room temperature with a Victor 1420 Multilabel plate reader (PerkinElmer). […]
The maximum velocity of the reaction (Vmax) and the Michaelis constant (Km), i.e., substrate concentration at which the reaction rate is half of the maximum, were evaluated for PSA with both peptide substrates using Sigma Plot 11 with the Enzyme Kinetics Module 1.3 (SYSTAT Software, Inc., San Jose, CA) and the catalytic constant (kcat), i.e., the number of substrate molecules converted to product per time unit, was calculated from the equation kcat = Vmax/[PSA]. The absorbance was converted to molar concentration with the Lambert-Beer equation (A = εcl), using the molar absorptivity of pNA (εpNA = 8800 M^−1cm^−1). Fluorescence (counts per second, cps) was transformed to molar concentrations with SigmaPlot by means of a standard curve for 7-amido-4-methylcoumarin (AMC, Sigma-Aldrich).

[2] = biological target: T1, PSA; conditions: ref [15], [47]; cited from earlier work
From the text: Previously, several selective and efficient substrates for PSA have been described. We used a fluorogenic peptide substrate identified by Denmeade and coworkers (1997). […] These differences may be explained by higher activity of the highly pu ...

[3] = test system: HUVECs; assay: HUVEC tube formation assay on Matrigel; type: cell-based, human; conditions: two separate experiments
Method: Human umbilical vein endothelial cells (HUVECs) were isolated from umbilical cord veins and grown in Endothelial Cell Growth Medium (Promocell, Heidelberg, Germany) with 2% Ultroser G BioSepra serum substitute (PALL BioSepra, Cergy, France) and growth factors EGF and bFGF. For tube formation, HUVECs were grown on top of Matrigel (BD Biosciences) as described previously, [29].
To study the effect of PSA-cleaved protein fragments, 0.08 µM nidogen-1 or 0.4 µM galectin-3 (10 µg/ml each) were first incubated with 1 µM PSA for 24 h at 37°C in PBS (Lonza). Then PSA activity was blocked by one-hour incubation at room temperature with 2 µM monoclonal antibody 5C7 [38]. The mixture containing nidogen-1 or galectin-3 fragments with PSA blocked by antibody or the same amount of intact nidogen-1 or galectin-3 were added together with the cells onto gelled Matrigel and the cells were allowed to form tubular networks for 20 h. Control wells contained either PBS or 1 µM PSA. After overnight incubation, cell culture medium was collected from PBS and PSA control wells for SDS-PAGE and Western blotting. Images of tubular networks (100×magnification) were taken using an Axiovert 200 inverted light microscope connected to an AxioCam digital camera and visualized by AxioVision software (all from Zeiss, Göttingen, Germany).

[4] = test system: HUVECs; set-up: method as in PMID 10702407, PMID 20713592; conditions: full-length galectin-3; ref [55], [72]; cited from earlier work
[5] = biological target: T1, PSA; assay: Proteolytic cleavage of protein substrates by PSA (SDS-PAGE, silver staining); type: biochemical; conditions: 22 h incubation, 37°C, different plasminogen preparations and PSA batches
Method: as §1
Protein LoBind tubes (Eppendorf AG, Hamburg, Germany) were used in all protein degradation experiments.
PSA (0.2–1 µM) and 0.5–1 µM of each protein substrate were incubated at 37°C for 22 h in TBS buffer. During the incubation, samples of 15 µl were taken at different time points: 0 min, 10 min, 30 min, 2 h, 5 h and 22 h, and stored at −20°C before further analysis.
Immediately after each incubation, reducing 4× SDS-loading buffer (8% SDS), containing 1 M β-mercaptoethanol or 75 mM dithiothreitol, was added to each sample and proteins were denatured at 70°C for 10 min. The samples were immediately analyzed by SDS-PAGE or frozen at −20°C. Frozen samples were heated again at 70°C before loading on the gel. The cleavage of protein substrates by PSA, i.e., the disappearance of the full-length protein bands, was quantified from scanned images of silver stained gels by the measurement of relative optical densities of the protein bands using ImageJ [40]. […]
Proteins were visualized either by silver staining or Western blotting. […] After 30 min incubation in 0.2% AgNO3, the gel was rinsed briefly with water and proteins were detected with development solution, containing 700 µl/l of 37% formaldehyde, 0.001% sodium thiosulfate and 3% anhydrous Na2CO3. […]

[6] = biological target: T1, PSA; conditions: reported to inhibit angiogenesis in vitro; ref [20]; cited from earlier work
Method: In the present study, we compared the proteolytic activity of PSA towards several protein substrates. As shown previously, semenogelins are cleaved very effectively by PSA. Malm and coworkers (2000) reported that more than half of semenogelin I is degraded after 15 min incubation with PSA [16], [63] and we observed this after 11 min incubation. Proteolysis of the other protein substrates, i.e., fibronectin, IGFBP-3, galectin-3 and nidogen-1, took much longer, reflecting the high substrate specificity of PSA for semenogelins. […] However, the detailed mechanism of the antiangiogenic activity of PSA remains unclear. Some of the proteolytically produced fragments of extracellular matrix (ECM) proteins act as endogenous angiogenesis inhibitors and may mediate the antiangiogenic effect of PSA. […] Although plasminogen ...

With “MeO-Suc-Arg-Pro-Tyr-pNA·HCl [Chromogenic substrate, chromogenic chymotrypsin substrate S-2586]” the Km ([1]; 405 nm, 5 min intervals for 30 min) was 5.72 ± 1.53 mM, the kcat/Km [1] was 133.4±24.6 s^−1M^−1 and the kcat ([1]; kcat = Vmax/[PSA]) was 0.75 ± 0.07 s⁻¹. The “kcat/Km reported previously, compared to this study” value [2] was “somewhat lower than that we observed”.
In the case of “galectin-3: recombinant human galectin-3”, the “effect on tube formation, PSA-generated fragments” value ([3]; 10 µg/ml (0.08 µM nidogen-1, 0.4 µM galectin-3) precleaved by 1 µM PSA 24 h, PSA blocked by mAb 5C7, 20 h) is given as “did not have any effect on tube formation”, the “effect on tube formation, full-length protein” value ([3]; 10 µg/ml (0.08 µM nidogen-1, 0.4 µM galectin-3), 20 h, HUVECs on Matrigel) is given as “did not have any effect on tube formation” and the angiogenesis [4] is given as “promote angiogenesis”.
For “plasminogen: plasminogen (Calbiochem and Hyphen BioMed) and lys-plasminogen from human plasma”, the “cleavage of plasminogen by PSA” value [5] is given as “PSA did not cleave plasminogen” and the “cleavage of plasminogen by PSA” value [6] is given as “cleave plasminogen to angiostatin-like fragments”.
